Data from patent publication US20030027286A1, “Bacterial promoters and methods of use” (priority 2000, published 2003).

Assays:
[1] = tested on: Staphylococcus aureus cells expressing antisense to the β subunit of gyrase; assay: Antibiotic IC50 plus/minus xylose in Staphylococcus aureus expressing antisense to gyrase β subunit; assay type: cell-based; details: antisense to gyrase β subunit under Xyl-T5; 12 mM vs 0 mM xylose; FIG. 15
Description: Sensitized cells were also used to identify the pathway in which a gene required for proliferation of Staphylococcus aureus lies. Antibiotics of various chemical classes and modes of action were purchased from chemical suppliers, for example Sigma Chemicals (St. Louis, Mo.). Stock solutions were prepared by dissolving each antibiotic in an appropriate aqueous solution based on information provided by the manufacturer. The final working solution of each antibiotic contained no more than 0.2% (w/v) of any organic solvent.
To determine its potency against a bacterial strain containing an antisense nucleic acid complementary to the sequence encoding the Beta (>) subunit of gyrase (which is required for proliferation) under the control of the Xyl-T5 fusion promoter, each antibiotic was serially diluted two or three fold in growth medium supplemented with the appropriate antibiotic for maintenance of the anti-sense construct. At least ten dilutions were prepared for each antibiotic.
Aliquots (25 μL) of each dilution were transferred to discrete wells of a 384-well microplate (the assay plate) using a multi-channel pipette. Quadruplicate wells were used for each dilution of an antibiotic under each treatment condition (plus and minus inducer). Each assay plate retained twenty wells for cell growth controls (growth media replacing antibiotic), ten wells for each treatment (plus and minus inducer, in this example xylose). Half the assay plate contained induced cells (in this example Staphylococcus aureus cells) and appropriate concentrations of inducer (in this example xylose) to maintain the state of induction while the other half of the assay plate contained non-induced cells in the absence of inducer.
Cells of a bacterial clone containing a construct in which expression of antisense complementary to the sequence encoding the β subunit of gyrase under the control of a xylose inducible promoter were grown into exponential growth (OD600 0.2 to 0.3) and then diluted 1:100 into fresh media containing either 12 mM or 0 mM inducer (xylose). These cultures were incubated at 37° C. for 2.5 hr. The presence of inducer (xylose) in the medium initiates and maintains production of antisense RNA from the antisense construct, in this case. After a 2.5 hr incubation, induced and non-induced cells were respectively diluted into an assay medium containing an appropriate concentration of the antibiotic for the maintenance of the anti-sense construct. In addition, medium used to dilute induced cells was supplemented with 24 mM xylose so that addition to the assay plate would result in a final xylose concentration of 12 mM. The cells were diluted to a final OD600 value of 0.0004.
Induced and non-induced cell suspensions were dispensed (25 :l/well) into the appropriate wells of the assay plate as discussed previously. The plate was then loaded into a plate reader and incubated at constant temperature while cell growth was monitored in each well by the measurement of light scattering at 595 nm. Growth was monitored every 5 minutes until the cell culture attained a stationary growth phase. For each concentration of antibiotic, a percentage inhibition of growth was calculated at the time point corresponding to mid-exponential growth for the associated control wells (no antibiotic, plus or minus xylose). For each antibiotic and condition (plus or minus xylose), plots of percent inhibition versus Log of antibiotic concentration were generated and IC50s determined.

[2] = tested on: E. coli expressing antisense RNA; assay: Antibiotic sensitivity of E. coli sensitized by IPTG-induced antisense RNA; assay type: cell-based, Escherichia coli; details: for sensitivity to antibiotic of antisense-expressing clones: initial experiments
Description: The effectiveness of the above cell-based assay was validated using constructs expressing antisense RNA to the proliferation required E. coli genes rplL, rplJ, and rplW encoding ribosomal proteins L7/L12, L10 and L23 respectively. These proteins are part of the protein synthesis apparatus of the cell and as such are required for proliferation. These constructs were used to test the effect of antisense expression on cell sensitivity to antibiotics known to bind to the ribosome and thereby inhibit protein synthesis. Constructs expressing antisense RNA to several other genes (elaD, visC, yohH, and atpE/B), the products of which are not involved in protein synthesis were used for comparison.
First, pLex5BA (Krause et al. 1997. J. Mol. Biol. 274: 365, the disclosure of which is incorporated herein by reference in its entirety) expression vectors containing antisense constructs to either rplW or to elaD were introduced into separate E. coli cell populations. Vector introduction is a technique well known to those of ordinary skill in the art. The expression vectors of this example contain IPTG inducible promoters that drive the expression of the antisense RNA in the presence of the inducer. However, those skilled in the art will appreciate that other inducible promoters may also be used. Suitable expression vectors are also well known in the art. The E. coli antisense clones to genes encoding ribosomal proteins L7/L12, L10 and L23 were used to test the effect of antisense expression on cell sensitivity to the antibiotics known to bind to these proteins. […]
The cell populations were exposed to a range of IPTG concentrations in liquid medium to obtain the growth inhibitory dose curve for each clone. First, seed cultures were grown to a particular turbidity that is measured by the optical density (OD) of the growth solution. […] The cells were grown for up to 15 hours and the extent of growth was determined by measuring the optical density of the cultures at 600 nm. […]

| SMILES | potency in induced cells as compared to uninduced cells [1] | further results |
| --- | --- | --- |
| CO/N=C(\C(=O)N[C@@H]1C(=O)N2C(C(=O)O)=C(COC(C)=O)CS[C@H]12)c1csc(N)n1 [cefotaxime] | not significantly different |  |
| CO[C@@]1(NC(=O)Cc2cccs2)C(=O)N2C(C(=O)O)=C(COC(N)=O)CS[C@@H]21 [cefoxitin] | not significantly different |  |
| CC[C@H]1OC(=O)[C@H](C)[C@@H](O[C@H]2C[C@@](C)(OC)[C@@H](O)[C@H](C)O2)[C@H](C)[C@@H](O[C@@H]2O[C@H](C)C[C@H](N(C)C)[C@H]2O)[C@](C)(O)C[C@@H](C)C(=O)[C@H](C)[C@@H](O)[C@]1(C)O [erythromycin] |  | sensitivity to antibiotic of antisense-expressing clones ([2]; clones antisense to non-protein synthesis genes elaD, atpB/E and visC): do not; sensitivity to antibiotic of antisense-expressing clones ([2]; clones antisense to protein synthesis genes (L7/L12 & L10, L7/L12 alone, L22, L18, rRNA, Elongation Factor G)): increased sensitivity |
| CC(=O)O[C@H]1C[C@@]2(C)[C@@H](C[C@@H](O)[C@H]3[C@@]4(C)CC[C@@H](O)[C@@H](C)[C@@H]4CC[C@@]32C)/C1=C(\CCC=C(C)C)C(=O)O [fusidic acid] | not significantly different |  |
| CCC[C@@H]1C[C@@H](C(=O)N[C@@H]([C@H]2O[C@H](SC)[C@H](O)[C@@H](O)[C@H]2O)[C@@H](C)O)N(C)C1 [lincomycin] | not significantly different |  |
| CCn1cc(C(=O)O)c(=O)c2ccc(C)nc21 [nalidixic acid] |  | sensitivity to antibiotic of antisense-induced cells ([2]; E. coli expressing antisense to rplL and rplJ (reduced L7/L12), IPTG): does not show increased sensitivity |
| CO[C@@H]1[C@@H](OC(N)=O)[C@@H](O)[C@H](Oc2ccc3c(O)c(NC(=O)c4ccc(O)c(CC=C(C)C)c4)c(=O)oc3c2C)OC1(C)C [novobiocin] | significantly different |  |
| NC[C@H]1O[C@H](O[C@H]2[C@H](O)[C@@H](O[C@H]3O[C@H](CO)[C@@H](O)[C@H](N)[C@H]3O)[C@H](N)C[C@@H]2N)[C@H](N)C[C@@H]1O [tobramycin] | not significantly different |  |
| COc1cc(Cc2cnc(N)nc2N)cc(OC)c1OC [trimethoprim] | not significantly different |  |
| CN[C@H](CC(C)C)C(=O)N[C@H]1C(=O)N[C@@H](CC(N)=O)C(=O)N[C@H]2C(=O)N[C@H]3C(=O)N[C@H](C(=O)N[C@H](C(=O)O)c4cc(O)cc(O)c4-c4cc3ccc4O)[C@H](O)c3ccc(c(Cl)c3)Oc3cc2cc(c3O[C@@H]2O[C@H](CO)[C@@H](O)[C@H](O)[C@H]2O[C@H]2C[C@](C)(N)[C@H](O)[C@H](C)O2)Oc2ccc(cc2Cl)[C@H]1O [vancomycin] | not significantly different |  |
